{"source": "patent US20120045459A1", "about": "“Methods for Treating Autophagy-Related Disorders” (Van Andel Research Institute, priority 2009, published 2012)", "key": {"[1]": {"system": "U2OS cells", "assay": "LC3B immunofluorescence of autophagic vesicles", "type": "cell-based, human", "details": "full growth medium, 25 uM chloroquine, 1 hr", "experimental": "Immunofluorescence and western blot analyses. U2OS cells were seeded at a density of 35,000 cells per well in McCoy's 5A medium supplemented with 10% FBS on number 1.5 coverglass in 24-well tissue culture plates (for immunofluorescence) or 150,000 cells per well on 6-well dishes (for western blot). After 24 h, siRNAs were transfected at a final concentration of 25 nM using 2 μl HiPerfect transfection reagents (Qiagen) per ml medium. Control siRNA was All-star negative control (Qiagen) and PTPRS siRNAs were two unique sequences (SI02759288, SI03056284, Qiagen). […] For western blots, cells were lysed (in 10 mM KPO4, 1 mM EDTA, 10 mM MgCl2, 5 mM EGTA, 50 mM bisglycerophosphate, 0.5% NP40, 0.1% Brij35, 0.1% sodium deoxycholate, 1 mM NaVO4, 5 mM NaF, 2 mM DTT, AEBSF, aprotinin, bestatin hydrochloride, E64, leupeptin, and pepstatin A and 20 μg of total protein was resolved by SDS-PAGE. Membranes were probed with primary antibodies (LC3B, Cell Signaling Technologies; α-tubulin, Sigma) for 16 h at 4° C. followed by secondary antibodies (HRP-linked anti-rabbit or anti-mouse IgG) for 1 h at room temperature. Proteins were detected by enhanced chemiluminescence. For immunofluorescence, cells were fixed with 3.7% formaldehyde, permeabilized with 0.2% Triton-X 100, and blocked with 3% bovine serum albumin (BSA) in PBS. […]"}, "[2]": {"system": "U2OS cells", "assay": "Transmission electron microscopy of autophagic vesicles", "type": "cell-based, human", "details": "compared with control cells in full nutrients", "experimental": "Transmission electron microscopy (TEM). U2OS cells in 10-cm dishes were transfected with control or PTPRS siRNAs for 48 h. Cells were briefly trypsinized, pelleted, rinsed, and resuspended in 2% glutaraldehyde fixative. Cell pellets were embedded in 2% agarose, postfixed in osmium tetroxide, and dehydrated with an acetone series. […] Ultrathin sections (70 nm) were generated with a Power Tome XL (Boeckeler Instruments) and placed on copper grids. Cells were examined using a JEOL 100CX Transmission Electron Microscope at 100 kV. Autophagic structures were quantified from images encompassing approximately 8.5 μm2 of cell area each."}}, "data": [{"smiles": "CCN(CC)CCCC(C)Nc1ccnc2cc(Cl)ccc12", "note": "(centres unmarked) [chloroquine]", "values": [{"measurement": "LC3-positive aggregates (AVs)", "setting": "[1]", "value": "LC3-positive aggregates accumulate"}, {"measurement": "autophagic vesicles (AVs) by TEM", "setting": "[2]", "value": "evident"}]}]}
